Assay results published in ChEMBL document CHEMBL5653615 (J Biol Chem, 2013).

Key:
[1] = molecular target: T1, Serine/threonine-protein kinase A-Raf (Homo sapiens) (UniProt P10398); test: Inhibition of human ARAF at 18.6 nM by HotSpot assay relative to control
T1 sequence (whole entry): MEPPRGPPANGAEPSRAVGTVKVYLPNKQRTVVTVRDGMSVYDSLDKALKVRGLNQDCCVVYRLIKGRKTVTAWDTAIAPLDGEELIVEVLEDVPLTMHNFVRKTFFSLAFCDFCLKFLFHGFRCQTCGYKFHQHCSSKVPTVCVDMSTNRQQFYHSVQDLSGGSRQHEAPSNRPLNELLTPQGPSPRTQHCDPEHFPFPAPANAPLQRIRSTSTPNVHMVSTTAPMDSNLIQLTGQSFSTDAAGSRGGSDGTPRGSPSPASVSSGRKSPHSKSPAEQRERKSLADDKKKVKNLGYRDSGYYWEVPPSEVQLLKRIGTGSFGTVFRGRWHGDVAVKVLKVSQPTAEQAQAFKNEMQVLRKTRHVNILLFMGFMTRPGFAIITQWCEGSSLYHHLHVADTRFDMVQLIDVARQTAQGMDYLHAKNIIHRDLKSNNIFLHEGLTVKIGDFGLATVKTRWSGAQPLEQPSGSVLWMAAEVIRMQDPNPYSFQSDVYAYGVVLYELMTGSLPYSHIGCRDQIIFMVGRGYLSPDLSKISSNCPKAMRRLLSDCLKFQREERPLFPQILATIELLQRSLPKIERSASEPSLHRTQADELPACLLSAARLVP

[2] = molecular target: T2, Dual specificity tyrosine-phosphorylation-regulated kinase 3 (Homo sapiens) (UniProt O43781); test: Inhibition of human DYRK3 at 18.6 nM by HotSpot assay relative to control
T2 sequence (whole entry): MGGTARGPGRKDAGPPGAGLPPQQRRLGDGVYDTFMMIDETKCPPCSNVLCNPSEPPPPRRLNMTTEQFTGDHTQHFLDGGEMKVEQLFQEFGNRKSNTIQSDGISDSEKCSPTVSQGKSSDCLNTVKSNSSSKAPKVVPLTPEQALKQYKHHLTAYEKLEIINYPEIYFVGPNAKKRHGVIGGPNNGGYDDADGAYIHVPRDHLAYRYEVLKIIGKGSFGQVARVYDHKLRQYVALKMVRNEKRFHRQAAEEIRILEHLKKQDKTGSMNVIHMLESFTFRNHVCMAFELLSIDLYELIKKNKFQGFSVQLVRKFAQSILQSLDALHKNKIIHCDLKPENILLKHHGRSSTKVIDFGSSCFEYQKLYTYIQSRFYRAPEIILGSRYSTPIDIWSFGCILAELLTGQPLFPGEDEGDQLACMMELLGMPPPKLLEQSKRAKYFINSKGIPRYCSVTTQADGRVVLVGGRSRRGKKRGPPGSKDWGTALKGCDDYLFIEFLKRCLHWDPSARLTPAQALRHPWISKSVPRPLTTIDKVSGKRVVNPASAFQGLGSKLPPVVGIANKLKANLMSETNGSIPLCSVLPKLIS

[3] = molecular target: CDK4/Cyclin D3 (Homo sapiens) (UniProt P11802+P30281); test: Inhibition of human CDK4/cyclin D3 at 18.6 nM by HotSpot assay relative to control; type: protein-complex assay
[4] = molecular target: Mitogen-activated protein kinase kinase kinase 9 (Homo sapiens) (UniProt P80192); test: Inhibition of human MAP3K9 at 1.82 nM by HotSpot assay relative to control
Chain of Mitogen-activated protein kinase kinase kinase 9 (Homo sapiens) (P80192 whole entry, looked up): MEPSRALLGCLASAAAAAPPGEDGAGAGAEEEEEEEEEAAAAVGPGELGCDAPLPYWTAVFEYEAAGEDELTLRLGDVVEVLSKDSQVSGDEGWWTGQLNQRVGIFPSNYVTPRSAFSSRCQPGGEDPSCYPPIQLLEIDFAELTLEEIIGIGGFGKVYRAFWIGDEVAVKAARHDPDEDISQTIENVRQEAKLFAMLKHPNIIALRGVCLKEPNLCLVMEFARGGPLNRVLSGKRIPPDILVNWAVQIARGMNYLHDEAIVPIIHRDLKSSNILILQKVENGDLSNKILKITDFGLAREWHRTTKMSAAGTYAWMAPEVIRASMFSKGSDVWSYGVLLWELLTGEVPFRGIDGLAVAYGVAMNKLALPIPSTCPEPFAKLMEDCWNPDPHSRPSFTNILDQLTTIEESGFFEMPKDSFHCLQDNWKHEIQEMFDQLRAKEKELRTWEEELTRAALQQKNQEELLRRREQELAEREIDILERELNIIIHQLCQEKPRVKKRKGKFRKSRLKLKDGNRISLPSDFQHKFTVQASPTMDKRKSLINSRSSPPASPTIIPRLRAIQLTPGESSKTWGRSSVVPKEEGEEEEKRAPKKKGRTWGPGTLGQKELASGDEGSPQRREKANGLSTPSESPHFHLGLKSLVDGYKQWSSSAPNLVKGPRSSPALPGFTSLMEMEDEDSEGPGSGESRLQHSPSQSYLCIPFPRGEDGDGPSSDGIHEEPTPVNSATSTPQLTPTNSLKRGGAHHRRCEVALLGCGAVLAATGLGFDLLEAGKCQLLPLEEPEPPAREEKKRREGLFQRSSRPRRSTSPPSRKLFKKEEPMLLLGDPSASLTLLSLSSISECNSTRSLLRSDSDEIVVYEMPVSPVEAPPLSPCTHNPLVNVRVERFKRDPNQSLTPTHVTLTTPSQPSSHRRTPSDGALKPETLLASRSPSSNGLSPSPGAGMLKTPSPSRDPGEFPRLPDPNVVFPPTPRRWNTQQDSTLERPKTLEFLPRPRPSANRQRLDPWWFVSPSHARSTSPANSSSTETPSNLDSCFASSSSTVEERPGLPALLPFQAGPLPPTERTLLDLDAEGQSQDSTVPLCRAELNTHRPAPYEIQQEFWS

[5] = molecular target: G protein-coupled receptor kinase 6 (Homo sapiens) (UniProt P43250); test: Inhibition of human GRK6 at 1.82 nM by HotSpot assay relative to control
Chain of G protein-coupled receptor kinase 6 (Homo sapiens) (P43250 whole entry, looked up): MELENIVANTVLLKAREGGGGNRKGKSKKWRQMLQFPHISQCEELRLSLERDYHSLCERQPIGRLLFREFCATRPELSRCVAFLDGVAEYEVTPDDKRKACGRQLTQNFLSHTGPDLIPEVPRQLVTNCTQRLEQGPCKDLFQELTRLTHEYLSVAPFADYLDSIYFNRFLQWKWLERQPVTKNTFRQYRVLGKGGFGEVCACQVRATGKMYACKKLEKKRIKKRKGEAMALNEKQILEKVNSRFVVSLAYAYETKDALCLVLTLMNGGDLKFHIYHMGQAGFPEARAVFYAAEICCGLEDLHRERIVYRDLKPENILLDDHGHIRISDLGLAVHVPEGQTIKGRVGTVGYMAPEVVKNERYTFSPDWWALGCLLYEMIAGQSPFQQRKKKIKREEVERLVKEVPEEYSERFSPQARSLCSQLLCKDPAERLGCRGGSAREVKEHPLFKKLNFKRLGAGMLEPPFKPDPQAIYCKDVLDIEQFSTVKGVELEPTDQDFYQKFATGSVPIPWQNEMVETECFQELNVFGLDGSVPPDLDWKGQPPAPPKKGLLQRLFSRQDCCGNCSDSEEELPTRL

[6] = molecular target: T3, Calcium/calmodulin-dependent protein kinase type IV (Homo sapiens) (UniProt Q16566); test: Inhibition of human CAMK4 at 1.82 nM by HotSpot assay relative to control
T3 sequence (whole entry): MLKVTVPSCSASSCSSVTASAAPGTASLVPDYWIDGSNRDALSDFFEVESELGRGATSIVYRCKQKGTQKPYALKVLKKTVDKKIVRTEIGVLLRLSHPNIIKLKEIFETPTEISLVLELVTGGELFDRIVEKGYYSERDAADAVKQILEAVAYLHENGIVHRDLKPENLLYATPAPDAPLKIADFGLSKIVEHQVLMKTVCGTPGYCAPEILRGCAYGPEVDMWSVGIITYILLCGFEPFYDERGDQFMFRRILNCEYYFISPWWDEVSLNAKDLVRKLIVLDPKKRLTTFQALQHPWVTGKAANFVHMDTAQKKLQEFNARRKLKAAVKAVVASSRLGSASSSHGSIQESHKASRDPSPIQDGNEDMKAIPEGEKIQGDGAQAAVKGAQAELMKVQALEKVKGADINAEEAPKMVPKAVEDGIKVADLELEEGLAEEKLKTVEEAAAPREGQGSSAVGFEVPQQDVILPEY

[7] = molecular target: Mitogen-activated protein kinase 10 (Homo sapiens) (UniProt P53779); test: Inhibition of human JNK3 at 1.82 nM by HotSpot assay relative to control
Chain of Mitogen-activated protein kinase 10 (Homo sapiens) (P53779 whole entry): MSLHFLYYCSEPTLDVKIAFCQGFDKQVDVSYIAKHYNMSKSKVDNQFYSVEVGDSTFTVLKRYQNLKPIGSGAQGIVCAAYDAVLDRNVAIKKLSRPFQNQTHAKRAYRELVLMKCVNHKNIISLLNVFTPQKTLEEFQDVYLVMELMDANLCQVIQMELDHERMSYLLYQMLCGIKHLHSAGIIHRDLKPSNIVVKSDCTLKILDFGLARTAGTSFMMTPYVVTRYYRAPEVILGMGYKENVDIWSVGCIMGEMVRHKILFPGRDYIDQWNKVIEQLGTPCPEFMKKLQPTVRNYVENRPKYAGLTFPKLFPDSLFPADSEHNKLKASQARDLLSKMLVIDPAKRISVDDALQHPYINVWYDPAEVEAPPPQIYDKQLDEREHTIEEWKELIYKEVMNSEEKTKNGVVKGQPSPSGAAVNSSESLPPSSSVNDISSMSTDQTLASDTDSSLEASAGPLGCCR

[8] = molecular target: T4, Rhodopsin kinase GRK7 (Homo sapiens) (UniProt Q8WTQ7); test: Inhibition of human GRK7 at 1.82 nM by HotSpot assay relative to control
T4 sequence (whole entry): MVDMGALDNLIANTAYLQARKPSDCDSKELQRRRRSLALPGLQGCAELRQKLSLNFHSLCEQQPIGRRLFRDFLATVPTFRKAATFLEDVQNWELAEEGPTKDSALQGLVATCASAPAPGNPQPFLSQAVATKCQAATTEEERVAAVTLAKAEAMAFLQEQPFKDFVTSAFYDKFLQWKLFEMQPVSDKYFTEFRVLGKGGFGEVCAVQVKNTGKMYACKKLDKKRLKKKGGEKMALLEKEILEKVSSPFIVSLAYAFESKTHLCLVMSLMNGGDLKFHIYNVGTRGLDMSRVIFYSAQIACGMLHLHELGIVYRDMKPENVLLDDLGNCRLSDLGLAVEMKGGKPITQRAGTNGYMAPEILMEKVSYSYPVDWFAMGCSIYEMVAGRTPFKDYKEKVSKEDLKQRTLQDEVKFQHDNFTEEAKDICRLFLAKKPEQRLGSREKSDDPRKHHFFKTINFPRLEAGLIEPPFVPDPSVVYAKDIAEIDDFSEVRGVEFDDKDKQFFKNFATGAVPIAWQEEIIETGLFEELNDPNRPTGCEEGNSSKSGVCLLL

C[C@]1(O)C[C@@H](c2nc(-c3ccc4ccc(-c5ccccc5)nc4c3)c3c(N)nccn32)C1
inhibition [1]: 5.16%
inhibition [2]: 3.01%
inhibition [3]: 2.46%

C[C@@]1(C(=O)Nc2ccc(F)nc2)CCCN1c1nc(Nc2cc(C3CC3)n[nH]2)c2cccn2n1
inhibition [4]: 2.63%
inhibition [5]: 2.92%
inhibition [6]: 3.45%
inhibition [7]: -8.84%
inhibition [8]: 4.43%
